Assay results: ChEMBL document CHEMBL4229333, “Effects of rigidity on the selectivity of protein kinase inhibitors” (Eur J Med Chem, 2018)

Key:
[1] = biological target: Vascular endothelial growth factor receptor 2 (Homo sapiens) (UniProt P35968); assay: Inhibition of KDR (unknown origin) at 1 uM by mobility shift microfluidics platform based assay relative to control
[2] = biological target: Serine/threonine-protein kinase Chk1 (Homo sapiens) (UniProt O14757); assay: Inhibition of CHEK1 (unknown origin) at 1 uM by mobility shift microfluidics platform based assay relative to control
[3] = biological target: Tyrosine-protein kinase SYK (Homo sapiens) (UniProt P43405); assay: Inhibition of SYK (unknown origin) at 1 uM by mobility shift microfluidics platform based assay relative to control
[4] = biological target: Serine/threonine-protein kinase 3 (Homo sapiens) (UniProt Q13188); assay: Inhibition of MST2 (unknown origin) at 1 uM by mobility shift microfluidics platform based assay relative to control
[5] = biological target: Aurora kinase B (Homo sapiens) (UniProt Q96GD4); assay: Inhibition of AURORA-B (unknown origin) at 1 uM by mobility shift microfluidics platform based assay relative to control
[6] = biological target: Receptor-interacting serine/threonine-protein kinase 2 (Homo sapiens) (UniProt O43353); assay: Inhibition of RIPK2 (unknown origin) at 1 uM by mobility shift microfluidics platform based assay relative to control
[7] = biological target: Tyrosine-protein kinase receptor UFO (Homo sapiens) (UniProt P30530); assay: Inhibition of AXL (unknown origin) at 1 uM by mobility shift microfluidics platform based assay relative to control
[8] = biological target: NT-3 growth factor receptor (Homo sapiens) (UniProt Q16288); assay: Inhibition of TRKC (unknown origin) at 1 uM by mobility shift microfluidics platform based assay relative to control
[9] = biological target: Dual specificity tyrosine-phosphorylation-regulated kinase 1A (Homo sapiens) (UniProt Q13627); assay: Inhibition of DYRK1A (unknown origin) at 1 uM by mobility shift microfluidics platform based assay relative to control
[10] = biological target: High affinity nerve growth factor receptor (Homo sapiens) (UniProt P04629); assay: Inhibition of TRKA (unknown origin) at 1 uM by mobility shift microfluidics platform based assay relative to control
[11] = biological target: Inhibitor of nuclear factor kappa-B kinase subunit beta (Homo sapiens) (UniProt O14920); assay: Inhibition of IKK-beta (unknown origin) at 1 uM by mobility shift microfluidics platform based assay relative to control
[12] = biological target: Homeodomain-interacting protein kinase 3 (Homo sapiens) (UniProt Q9H422); assay: Inhibition of HIPK3 (unknown origin) at 1 uM by mobility shift microfluidics platform based assay relative to control
[13] = biological target: cGMP-dependent protein kinase 1 (Homo sapiens) (UniProt Q13976); assay: Inhibition of PRKG1 (unknown origin) at 1 uM by mobility shift microfluidics platform based assay relative to control
[14] = biological target: Ribosomal protein S6 kinase alpha-6 (Homo sapiens) (UniProt Q9UK32); assay: Inhibition of RSK4 (unknown origin) at 1 uM by mobility shift microfluidics platform based assay relative to control
[15] = biological target: Calcium/calmodulin-dependent protein kinase type IV (Homo sapiens) (UniProt Q16566); assay: Inhibition of CAMK4 (unknown origin) at 1 uM by mobility shift microfluidics platform based assay relative to control
[16] = biological target: Mitogen-activated protein kinase 12 (Homo sapiens) (UniProt P53778); assay: Inhibition of P38-gamma (unknown origin) at 1 uM by mobility shift microfluidics platform based assay relative to control
[17] = biological target: Ephrin type-B receptor 2 (Homo sapiens) (UniProt P29323); assay: Inhibition of EPH-B2 (unknown origin) at 1 uM by mobility shift microfluidics platform based assay relative to control
[18] = biological target: Protein kinase C beta type (Homo sapiens) (UniProt P05771); assay: Inhibition of PKC-beta1 (unknown origin) at 1 uM by mobility shift microfluidics platform based assay relative to control
[19] = biological target: MAP kinase-activated protein kinase 2 (Homo sapiens) (UniProt P49137); assay: Inhibition of MAPKAPK2 (unknown origin) at 1 uM by mobility shift microfluidics platform based assay relative to control
[20] = biological target: AMP-activated protein kinase (AMPK) alpha-1/beta-1/gamma-1 (Homo sapiens) (UniProt P54619+Q9Y478+Q13131); assay: Inhibition of AMP-A1B1G1 (unknown origin) at 1 uM by mobility shift microfluidics platform based assay relative to control; format: protein-complex assay
[21] = biological target: RAF proto-oncogene serine/threonine-protein kinase (Homo sapiens) (UniProt P04049); assay: Inhibition of CRAF (unknown origin) at 1 uM by mobility shift microfluidics platform based assay relative to control
[22] = biological target: Macrophage colony-stimulating factor 1 receptor (Homo sapiens) (UniProt P07333); assay: Inhibition of FMS (unknown origin) at 1 uM by mobility shift microfluidics platform based assay relative to control
[23] = biological target: Dual specificity mitogen-activated protein kinase kinase 2 (Homo sapiens) (UniProt P36507); assay: Inhibition of MEK2 (unknown origin) at 1 uM by mobility shift microfluidics platform based assay relative to control
[24] = biological target: Serine/threonine-protein kinase PLK3 (Homo sapiens) (UniProt Q9H4B4); assay: Inhibition of PLK3 (unknown origin) at 1 uM by mobility shift microfluidics platform based assay relative to control
[25] = biological target: Serine/threonine-protein kinase 24 (Homo sapiens) (UniProt Q9Y6E0); assay: Inhibition of MST3 (unknown origin) at 1 uM by mobility shift microfluidics platform based assay relative to control
[26] = biological target: Mitogen-activated protein kinase 10 (Homo sapiens) (UniProt P53779); assay: Inhibition of JNK3 (unknown origin) at 1 uM by mobility shift microfluidics platform based assay relative to control
[27] = biological target: Ephrin type-A receptor 4 (Homo sapiens) (UniProt P54764); assay: Inhibition of EPH-A4 (unknown origin) at 1 uM by mobility shift microfluidics platform based assay relative to control
[28] = biological target: Mitogen-activated protein kinase 11 (Homo sapiens) (UniProt Q15759); assay: Inhibition of P38-beta (unknown origin) at 1 uM by mobility shift microfluidics platform based assay relative to control
[29] = biological target: Serine/threonine-protein kinase Nek7 (Homo sapiens) (UniProt Q8TDX7); assay: Inhibition of NEK7 (unknown origin) at 1 uM by mobility shift microfluidics platform based assay relative to control
[30] = biological target: Tyrosine-protein kinase Lyn (Homo sapiens) (UniProt P07948); assay: Inhibition of LYNB (unknown origin) at 1 uM by mobility shift microfluidics platform based assay relative to control
[31] = biological target: Platelet-derived growth factor receptor beta (Homo sapiens) (UniProt P09619); assay: Inhibition of PDGFR-beta (unknown origin) at 1 uM by mobility shift microfluidics platform based assay relative to control
[32] = biological target: cGMP-dependent protein kinase 2 (Homo sapiens) (UniProt Q13237); assay: Inhibition of PRKG2 (unknown origin) at 1 uM by mobility shift microfluidics platform based assay relative to control
[33] = biological target: Dual specificity mitogen-activated protein kinase kinase 1 (Homo sapiens) (UniProt Q02750); assay: Inhibition of MEK1 (unknown origin) at 1 uM by mobility shift microfluidics platform based assay relative to control

Serine/threonine-protein kinase 3 (Homo sapiens), sequence (Q13188 whole entry): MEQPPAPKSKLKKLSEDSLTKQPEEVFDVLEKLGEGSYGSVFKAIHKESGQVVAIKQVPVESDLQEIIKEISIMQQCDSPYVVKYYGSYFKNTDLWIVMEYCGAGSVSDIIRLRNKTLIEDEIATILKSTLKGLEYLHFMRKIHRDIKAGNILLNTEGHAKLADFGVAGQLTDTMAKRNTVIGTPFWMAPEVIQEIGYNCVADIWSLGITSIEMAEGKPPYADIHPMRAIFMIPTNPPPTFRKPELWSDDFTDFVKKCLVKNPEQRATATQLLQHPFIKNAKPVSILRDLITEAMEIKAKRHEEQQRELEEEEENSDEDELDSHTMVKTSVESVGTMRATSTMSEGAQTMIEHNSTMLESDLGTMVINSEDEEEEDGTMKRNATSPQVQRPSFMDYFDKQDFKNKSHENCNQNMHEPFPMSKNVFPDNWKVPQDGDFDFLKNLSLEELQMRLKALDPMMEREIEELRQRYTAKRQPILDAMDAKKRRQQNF
Dual specificity mitogen-activated protein kinase kinase 2 (Homo sapiens), sequence (P36507 whole entry): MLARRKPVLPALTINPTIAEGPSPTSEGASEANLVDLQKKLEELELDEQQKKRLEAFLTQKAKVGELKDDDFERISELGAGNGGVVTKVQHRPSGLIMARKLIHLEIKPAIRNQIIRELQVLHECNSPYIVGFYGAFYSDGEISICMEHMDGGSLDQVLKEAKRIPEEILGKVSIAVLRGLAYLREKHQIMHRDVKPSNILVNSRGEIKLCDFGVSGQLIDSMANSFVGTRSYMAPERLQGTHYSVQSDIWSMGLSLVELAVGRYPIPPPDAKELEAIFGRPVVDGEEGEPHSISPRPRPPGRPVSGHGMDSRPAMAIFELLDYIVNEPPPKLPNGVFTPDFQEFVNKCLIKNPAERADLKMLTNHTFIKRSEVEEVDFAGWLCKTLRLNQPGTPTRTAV
High affinity nerve growth factor receptor (Homo sapiens), sequence (P04629 33-796 limits assumed): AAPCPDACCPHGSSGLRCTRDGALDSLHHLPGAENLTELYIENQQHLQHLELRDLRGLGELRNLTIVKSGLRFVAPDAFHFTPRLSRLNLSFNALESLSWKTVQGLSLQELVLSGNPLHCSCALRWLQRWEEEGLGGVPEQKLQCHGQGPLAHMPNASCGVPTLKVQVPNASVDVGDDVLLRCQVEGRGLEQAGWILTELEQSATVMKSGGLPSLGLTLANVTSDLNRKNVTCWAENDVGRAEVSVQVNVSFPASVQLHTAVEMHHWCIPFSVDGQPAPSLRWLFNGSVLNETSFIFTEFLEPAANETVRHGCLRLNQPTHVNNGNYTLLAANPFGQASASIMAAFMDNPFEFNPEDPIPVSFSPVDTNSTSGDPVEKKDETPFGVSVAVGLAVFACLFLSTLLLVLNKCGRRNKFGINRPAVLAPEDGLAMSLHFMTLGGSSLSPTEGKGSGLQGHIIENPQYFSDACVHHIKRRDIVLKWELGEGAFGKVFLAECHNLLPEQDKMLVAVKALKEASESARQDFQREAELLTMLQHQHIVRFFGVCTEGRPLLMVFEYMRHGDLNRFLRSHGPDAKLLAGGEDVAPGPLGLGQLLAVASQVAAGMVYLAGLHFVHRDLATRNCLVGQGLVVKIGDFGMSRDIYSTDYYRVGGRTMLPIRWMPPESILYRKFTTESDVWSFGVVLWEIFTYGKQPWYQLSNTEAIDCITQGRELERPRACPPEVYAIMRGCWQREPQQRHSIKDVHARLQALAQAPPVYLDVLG
MAP kinase-activated protein kinase 2 (Homo sapiens), sequence (P49137 whole entry, looked up): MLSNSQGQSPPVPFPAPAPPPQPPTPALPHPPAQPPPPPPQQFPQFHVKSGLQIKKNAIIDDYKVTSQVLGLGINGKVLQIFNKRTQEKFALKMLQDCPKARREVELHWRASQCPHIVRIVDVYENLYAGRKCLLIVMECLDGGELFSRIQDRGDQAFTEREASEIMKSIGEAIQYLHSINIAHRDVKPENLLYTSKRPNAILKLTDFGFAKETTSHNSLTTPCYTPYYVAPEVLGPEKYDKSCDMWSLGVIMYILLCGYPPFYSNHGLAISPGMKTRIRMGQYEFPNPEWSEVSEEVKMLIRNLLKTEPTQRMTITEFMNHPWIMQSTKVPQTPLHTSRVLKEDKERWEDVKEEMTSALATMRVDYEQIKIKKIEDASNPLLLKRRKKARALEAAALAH
Ephrin type-B receptor 2 (Homo sapiens), sequence (P29323 whole entry): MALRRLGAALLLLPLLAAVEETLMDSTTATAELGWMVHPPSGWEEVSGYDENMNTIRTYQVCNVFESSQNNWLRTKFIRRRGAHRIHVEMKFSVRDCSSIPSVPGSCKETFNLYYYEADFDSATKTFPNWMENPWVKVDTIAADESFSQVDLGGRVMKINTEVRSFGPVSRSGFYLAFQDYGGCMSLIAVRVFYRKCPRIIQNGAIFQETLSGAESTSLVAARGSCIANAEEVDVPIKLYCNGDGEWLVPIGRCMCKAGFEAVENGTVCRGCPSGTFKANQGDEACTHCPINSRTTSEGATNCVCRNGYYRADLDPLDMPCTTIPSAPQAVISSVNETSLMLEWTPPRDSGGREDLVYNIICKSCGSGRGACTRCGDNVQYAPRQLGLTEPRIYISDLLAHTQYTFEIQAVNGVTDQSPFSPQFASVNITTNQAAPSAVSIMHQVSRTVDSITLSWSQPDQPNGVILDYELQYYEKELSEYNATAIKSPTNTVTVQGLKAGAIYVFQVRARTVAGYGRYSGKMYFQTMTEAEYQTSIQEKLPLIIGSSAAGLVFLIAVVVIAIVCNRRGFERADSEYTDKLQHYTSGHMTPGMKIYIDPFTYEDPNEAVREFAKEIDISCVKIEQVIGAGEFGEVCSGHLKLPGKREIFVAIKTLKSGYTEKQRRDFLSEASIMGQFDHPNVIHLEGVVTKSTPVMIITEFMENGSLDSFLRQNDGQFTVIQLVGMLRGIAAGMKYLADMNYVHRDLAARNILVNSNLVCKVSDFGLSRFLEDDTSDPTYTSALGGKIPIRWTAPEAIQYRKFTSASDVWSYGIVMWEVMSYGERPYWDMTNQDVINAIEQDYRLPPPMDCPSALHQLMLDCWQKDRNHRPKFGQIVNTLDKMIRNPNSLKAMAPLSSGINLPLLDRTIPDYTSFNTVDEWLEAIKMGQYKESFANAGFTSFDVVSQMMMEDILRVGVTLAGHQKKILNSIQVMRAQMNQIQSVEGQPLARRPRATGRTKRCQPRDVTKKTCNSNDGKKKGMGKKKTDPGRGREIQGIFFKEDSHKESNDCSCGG
Serine/threonine-protein kinase PLK3 (Homo sapiens), sequence (Q9H4B4 whole entry, looked up): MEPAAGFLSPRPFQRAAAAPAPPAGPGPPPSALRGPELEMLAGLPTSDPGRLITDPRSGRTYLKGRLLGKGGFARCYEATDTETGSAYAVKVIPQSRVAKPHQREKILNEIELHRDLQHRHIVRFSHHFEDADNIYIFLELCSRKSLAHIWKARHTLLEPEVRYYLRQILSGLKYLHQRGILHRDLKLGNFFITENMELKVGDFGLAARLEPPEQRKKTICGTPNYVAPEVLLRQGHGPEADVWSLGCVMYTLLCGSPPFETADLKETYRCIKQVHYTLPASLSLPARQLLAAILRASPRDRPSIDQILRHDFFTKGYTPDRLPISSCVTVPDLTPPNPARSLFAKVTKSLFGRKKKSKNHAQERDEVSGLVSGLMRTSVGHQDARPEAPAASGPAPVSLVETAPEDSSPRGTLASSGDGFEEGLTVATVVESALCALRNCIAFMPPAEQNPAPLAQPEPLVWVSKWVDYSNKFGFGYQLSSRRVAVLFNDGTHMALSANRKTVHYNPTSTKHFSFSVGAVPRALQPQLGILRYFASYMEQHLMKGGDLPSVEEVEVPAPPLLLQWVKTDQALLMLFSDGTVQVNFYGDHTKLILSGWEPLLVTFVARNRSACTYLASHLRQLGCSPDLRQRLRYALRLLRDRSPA
Mitogen-activated protein kinase 10 (Homo sapiens), sequence (P53779 whole entry): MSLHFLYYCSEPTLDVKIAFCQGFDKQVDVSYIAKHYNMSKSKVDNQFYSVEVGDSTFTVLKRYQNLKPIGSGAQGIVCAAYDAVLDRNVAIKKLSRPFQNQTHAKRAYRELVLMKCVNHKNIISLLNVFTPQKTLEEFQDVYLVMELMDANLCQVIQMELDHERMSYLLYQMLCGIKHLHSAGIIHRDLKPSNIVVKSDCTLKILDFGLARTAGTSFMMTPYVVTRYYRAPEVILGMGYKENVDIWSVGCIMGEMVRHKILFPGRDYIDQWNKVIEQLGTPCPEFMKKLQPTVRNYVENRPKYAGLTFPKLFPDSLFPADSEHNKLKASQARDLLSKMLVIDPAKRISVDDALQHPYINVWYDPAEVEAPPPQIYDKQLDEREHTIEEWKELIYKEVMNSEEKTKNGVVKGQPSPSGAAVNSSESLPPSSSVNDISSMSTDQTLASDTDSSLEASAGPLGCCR
Tyrosine-protein kinase Lyn (Homo sapiens), sequence (P07948 2-512 limits assumed): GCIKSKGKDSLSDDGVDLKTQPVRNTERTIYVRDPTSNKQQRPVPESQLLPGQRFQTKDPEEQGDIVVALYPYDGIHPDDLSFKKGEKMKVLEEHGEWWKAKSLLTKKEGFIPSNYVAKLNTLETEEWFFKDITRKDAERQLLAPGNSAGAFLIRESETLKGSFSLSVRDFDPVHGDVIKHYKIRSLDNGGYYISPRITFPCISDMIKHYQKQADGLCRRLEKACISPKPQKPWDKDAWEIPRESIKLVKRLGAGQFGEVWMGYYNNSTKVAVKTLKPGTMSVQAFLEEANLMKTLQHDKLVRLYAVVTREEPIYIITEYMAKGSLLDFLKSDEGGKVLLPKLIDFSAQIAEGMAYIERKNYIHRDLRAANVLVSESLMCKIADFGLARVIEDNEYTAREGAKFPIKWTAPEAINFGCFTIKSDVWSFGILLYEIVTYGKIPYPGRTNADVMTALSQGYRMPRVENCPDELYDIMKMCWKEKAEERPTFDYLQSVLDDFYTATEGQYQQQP

Row | Structure (SMILES) | inhibition [1] | inhibition [2] | inhibition [3] | inhibition [4] | inhibition [5] | inhibition [6] | inhibition [7] | inhibition [8] | inhibition [9] | inhibition [10] | inhibition [11] | inhibition [12] | inhibition [13] | inhibition [14] | inhibition [15] | inhibition [16] | inhibition [17] | inhibition [18] | inhibition [19] | inhibition [20] | further results
1 | CC(C)n1nc(C#Cc2cccc(NC(=O)c3cccc(C(F)(F)F)c3)c2)c2c(N)ncnc21 | 109% | -1% | -4% | 2% | 82% | 98% | 12% | 59% | 2% | 22% | 22% | 0% | 1% | 2% | 11% | 1% | 99% | -3% | -1% | 2% | inhibition [21]: 118%; inhibition [22]: 99%; inhibition [23]: 25%; inhibition [24]: 3%; inhibition [25]: 0%; inhibition [26]: -8%; inhibition [27]: 99%; inhibition [28]: 23%; inhibition [29]: 1%; inhibition [30]: 100%; inhibition [31]: 100%; inhibition [32]: 24%; inhibition [33]: 13%
2 | CC(C)n1nc(C#Cc2cccc3cc(-c4cccc(C(F)(F)F)c4)ncc23)c2c(N)ncnc21 | 98% | -1% | 6% | 2% | 27% | 82% | 2% | 14% | 2% | 2% | 2% | -1% | 1% | 0% | 6% | 0% | 97% | 2% | 5% | 0% | inhibition [21]: 101%; inhibition [22]: 87%; inhibition [23]: 6%; inhibition [24]: 0%; inhibition [25]: 3%; inhibition [26]: 5%; inhibition [27]: 95%; inhibition [28]: 3%; inhibition [29]: -2%; inhibition [30]: 94%; inhibition [31]: 71%; inhibition [32]: 9%; inhibition [33]: -8%
